{"source": "patent US20170112787A1", "about": "“METHODS OF TREATMENT OF INFLAMMATION OF THE GUT” (THE UNIVERSITY OF CONNECTICUT, priority 2015, published 2017)", "key": {"[1]": {"tested_on": "siLP CX3CR1hi Mφ", "assay": "Oral gavage; frequency of siLP CX3CR1hi Mφ and CX3CR1lo cells by flow cytometry", "type": "in vivo, mouse", "description": "Mice: C57BL/6, NOD/Lt, VR1^−/− (also known as TRPV1^−/−), IL27RA^−/− (also known as WSX-1^−/−) and CX3CR1^gfp/gfp, were obtained from the Jackson Laboratory (Bar Harbor, Me.). IL10-GFP reporter (Vert-X) mice were a kind gift from Dr. Roger S Thrall. All animals except NOD/Lt were on a C57BL/6 background. CX3CR1^gfp/gfp were crossed with C57BL/6 mice to obtain CX3CR1^gfp/+ mice. CX3CR1^gfp/gfp mice were backcrossed with VR1^−/− to obtain CX3CR1^gfp/+ VR1^−/− mice. IL27RA^−/− mice were backcrossed with C57BL/6 mice to obtain IL27RA^+/− mice. All animals were housed in the Center for Comparative Medicine at UConn Health. All experiments were conducted under the guidelines approved by the UConn Health Animal Care Committee.\n(§1) Cell isolation: The siLP cells were isolated as per protocols known in the art. In brief, small intestines were removed from the mice, luminal contents were flushed with cold HBSS (Invitrogen, Carlsbad, Calif., USA) with 5% FBS, opened longitudinally after removing Peyer's patches and cut in to small pieces. The epithelial cells were removed by incubation with HBSS containing 1.3 mM EDTA (Invitrogen, Carlsbad, Calif., USA), 1mM HEPES (Invitrogen, Carlsbad, Calif., USA) and 0.77 mM DTT (Sigma, St. Louis, Mo., USA) at 37° C. shaking at 350 rpm. The intestinal pieces were then washed with PBS (Invitrogen, Carlsbad, Calif., USA) and digested in 100 units/ml collagenase IV (Sigma, St. Louis, Mo., USA) at 37° C. shaking at 550 rpm. Leukocytes were enriched using percoll (GE Healthcare, Piscataway, N.J., USA) gradient. The PLN, MLN and splenic cells were isolated by gently crushing the organs through 70 μm cell strainer (BD Falcon, Franklin, N.J., USA). Splenocytes were incubated with ACK lysing buffer (Invitrogen, N.Y., USA) to eliminate red blood cells for 3 mins at 37° C. and washed twice with PBS.\n(§2) Flow cytometry: Fluorescently labeled antibodies used for surface staining included: CD11b (M1/70), CD11 c (N418), CX3CR1 (polyclonal), CD103 (2E7), CD64 (X54-5/7.1), MHCII (M5/114.15.2), B220 (RA3-6B2), CD3 (145-2C11), CD4 (RM4-5), CD25 (PC61) and CD62L (ME2-14) and those used for intracellular staining include: VR1 (polyclonal) IL10 (JESS-16E3), TNFα (MP6-XT22), IFNγ (XMG1.2), and IL17A (TC11-18H10.1). For detection of CB2, primary antibody against CB2 (polyclonal) was used followed by fluorescently labeled secondary antibody. All were purchased from Biolegend San Diego, Calif., USA except for TNFα (Becton Dickinson, San Jose, Calif., USA), CX3CR1 (R&D Minneapolis, Minn., USA), VR1 (Thermo Scientific, Rockford, Ill. USA), IL10 (eBioscience, San Diego Calif., USA) and CB2 (Thermo Scientific, Rockford, Ill. USA). Cells were acquired with a LSRII flow cytometer (Becton Dickinson, San Jose, Calif., USA) or sorted with a FACSAria™ machine (Becton Dickinson, San Jose, Calif., USA). Flow cytometry analysis was done with the FlowJo Version 9.7.6 (Tree Star, Ashland, Oreg,).\n(§3) Oral administration of CP, AEA and PF3845: Mice were anesthetized with intraperitoneal injection of ketamine (2 mg/kg) and xylazine (0.1 mg/kg). Vehicle control (tween 80 (5%), […] in PBS) or CP (10 μg) (ENZO Life Sciences, Farmingdale, N.Y., USA) or AEA (250 μg, 400 μg or 500 μg) (Cayman Chemical Co., Ann Arbor, Mich., USA) or PF3845 (5 mg/kg) (Cayman Chemical Co., Ann Arbor, Mich., USA) were gavaged in 100 μl volume using an 18-gauge feeding needle (Popper & Sons, New Hyde Park, N.Y., USA)."}, "[2]": {"tested_on": "siLP CX3CR1hi Mφ and CD103+ DCs", "assay": "Oral gavage; IL10, TNF-α and CX3CR1 expression in siLP CX3CR1hi Mφ and CD103+ DCs by flow cytometry", "type": "in vivo, mouse", "protocol": "as §1, §2\nIntracellular cytokine staining: Cells were incubated with PMA (50 ng/ml) (Sigma Co., St. Luis, Mo., USA) plus ionomycin (1 μg/ml) (Sigma Co., St. Luis, Mo., USA) in the presence of golgi plug (BD Biosciences, San Jose, USA) for 5 hours at 37° C. followed by surface staining with fluorochrome conjugated antibodies and then intracellular staining of IL10, TNFα, IFNγ, and IL17A was performed by fixation and permeabilization according to manufacturer's protocol BD Cytofix/Cytoperm™ kit. […]"}, "[3]": {"tested_on": "naïve splenic CD4+ T cells", "assay": "In vitro co-culture of siLP MNPs sorted from treated mice with naïve splenic CD4+ T cells", "type": "cell-based, mouse", "protocol": "(§4) Intracellular cytokine staining: Cells were incubated with PMA (50 ng/ml) (Sigma Co., St. Luis, Mo., USA) plus ionomycin (1 μg/ml) (Sigma Co., St. Luis, Mo., USA) in the presence of golgi plug (BD Biosciences, San Jose, USA) for 5 hours at 37° C. followed by surface staining with fluorochrome conjugated antibodies and then intracellular staining of IL10, TNFα, IFNγ, and IL17A was performed by fixation and permeabilization according to manufacturer's protocol BD Cytofix/Cytoperm™ kit.\nIn vitro co-culture assays: For in vitro co-culture assays, siLP MNPs were sorted as described previously from C57BL/6 or CX3CR1^gfp/+ mice. MNPs (10×10^4) were cocultured for 4 days with splenic naïve CD25^− CD62L^hi CD4^±T cells sorted from untreated C57BL/6 or IL27Ra^−/− mice at 1:1 ratios in the presence of soluble αCD3 mAb (145-2C11) (0.5 μg/ml) in U-bottomed 96 well plates. The cultured cells were maintained in RPMI 1640 medium supplemented with 5% fetal bovine serum, 1 mM sodium pyruvate, 1 mM non-essential amino acids, 2 mM L-gluatamine, 50 units/ml streptomycin, and 50 μM Beta-mercaptoethanol, all purchased from Gibco/Invitrogen (Carlsbad, Calif., USA). After 4 days, the cultured cells were washed with PBS and surface stained with CD4 and intracellular staining was performed for IL10 and IFN-γ.\nas §3"}, "[4]": {"tested_on": "IL27-p28", "assay": "qPCR of IL27-p28 in sorted siLP MNPs after oral gavage", "type": "in vivo, mouse", "settings": "two days after treatment, with respect to vehicle", "protocol": "as §3\nqPCR: Total RNA was isolated from sorted siLP MNP using the RNeasy® Micro kit Oaten, Chatsworth, Calif., USA). cDNA was made from total RNA using iSCRIPT™ cDNA synthesis kit (Bio-Rad Laboratories, Hercules, Calif.). IL-27 gene expression was measured using IL-27 TactMan® Gene Expression Assay (Life technologies, Grand Island, N.Y., USA) and CFX96™ Real-Time PCR detection system (Bio-Rad Laboratories, Hercules, Calif., USA). Gene expression was normalized to GAPDH."}, "[5]": {"tested_on": "CX3CR1+ Mφ in PLN and MLN", "assay": "Oral gavage; frequency of CX3CR1+ Mφ in PLN and MLN by flow cytometry", "type": "in vivo, mouse", "protocol": "as §1\nas §2, with “Flow cytometry analysis was done with the FlowJo Version 9.7.6 (Tree Star, Ashland, Oreg,).” left out"}, "[6]": {"tested_on": "CD4+IL10+IFN-γ+ Tr1 cells", "assay": "Oral gavage; frequency of CD4+IL10+IFN-γ+ Tr1 cells and IL17A+ CD4+ T cells in siLP and PLN", "type": "in vivo, mouse", "protocol": "as §1, §2, §4, §3\nWe now tested if CP can elicit such regulatory T cells in vivo. NOD mice were orally gavaged twice at 9th and 10th week of age with 10 μg CP or vehicle as a control; two weeks post CP treatment, siLP and the PLN were harvested and the frequency of CD4+IL10+IFN-γ+ Tr1 cells was measured."}, "[7]": {"tested_on": "Type 1 Diabetes in NOD mice", "assay": "Adoptive transfer of CD4+ T cells from treated NOD donors; diabetes development by urine glucose", "type": "in vivo, mouse", "settings": "CD4+ T cells from PLN and spleen of treated female NOD donors, vs vehicle elicited cells", "protocol": "Adoptive transfer: Female NOD mice were orally gavaged with CP 10 μg or vehicle at 9 and 10 weeks of age as described earlier. 2 weeks later CD4^+ T cells were sorted from the PLN and spleen of the treated mice. All recipient female NOD mice were sub-lethally irradiated. Four hours after irradiation the recipient mice received […] diabetogenic splenocytes. 7×10^6 sorted CD4^+ T cells were then transferred to naïve NOD female mice by retro-orbital injection at 11 weeks of age. Development of diabetes was monitored by measuring urine glucose using Diastix® reagent strips (Bayer, Elkhart, Ind., USA). Mice were considered diabetic after two consecutive readings of >1000 mg/dl of urine glucose."}, "[8]": {"settings": "CX3CR1gfp/+ mice, oral gavage, 24 hours after feeding, vs vehicle"}, "[9]": {"settings": "NOD mice, 10 μg at 9th and 10th week, two weeks post treatment"}}, "data": [{"smiles": "COc1cc(CNC(=O)CCCC/C=C/C(C)C)ccc1O", "note": "[CP, Capsaicin]", "values": [{"measurement": "frequency and number of CX3CR1lo cells in siLP", "setting": "[1]; CX3CR1gfp/+ mice, oral gavage 10 μg, 24 hours, vs vehicle", "value": "did not affect the frequency and number"}, {"measurement": "frequency of CX3CR1hi Mφ in siLP", "setting": "[1]; [8]", "value": "significantly increased the frequency"}, {"measurement": "frequency of CX3CR1hi Mφ in siLP", "setting": "[1]; CX3CR1gfp/gfp mice (lack functional CX3CR1), oral gavage 10 μg, 24 h", "value": "no changes in the frequency"}, {"measurement": "frequency of CX3CR1hi Mφ in siLP", "setting": "[1]; NOD mice, oral administration", "value": "increases the frequency"}, {"measurement": "production of TNF-α in CX3CR1hi Mφ", "setting": "[2]; 24 hours after treatment, vs controls", "value": "decreased"}, {"measurement": "expression of CX3CR1 on CX3CR1hi Mφ", "setting": "[2]; CX3CR1gfp/+ mice, vs vehicle", "value": "significantly increased expression of CX3CR1"}, {"measurement": "IL10 production in CD103+ DCs", "setting": "[2]; IL10-GFP reporter mice, oral gavage 10 μg, 24 hrs", "value": "modest but statistically significant increase in IL10 production"}, {"measurement": "production of IL10 in CX3CR1hi Mφ", "setting": "[2]; IL10 GFP-reporter mice, 24 hours after treatment, vs controls", "value": "significant increase in the production of IL10"}, {"measurement": "expression of IL10 in CD4+ T cells", "setting": "[3]; MNPs sorted 24 hours after treatment, co-culture 1:1, four days", "value": "significant increase in the expression of IL10"}, {"measurement": "induction of CD4+ T cells expressing both IL10 and IFN-γ (Tr1)", "setting": "[3]; MNPs sorted 24 hours after treatment, co-culture 1:1, four days, IL27RA+/+ T cells", "value": "significant increase in the induction"}, {"measurement": "increase in frequency of CD4+ IL10+ IFN-γ+ T cells", "setting": "[3]; T cells derived from IL27RA−/− mice", "value": "completely abrogated"}, {"measurement": "level of IL27-p28 in the MNPs", "setting": "[4]", "value": "five fold increase"}, {"measurement": "frequency of CX3CR1+ Mφ in the MLN", "setting": "[5]; 3 days after feeding 10 μg", "value": "but not in MLN"}, {"measurement": "frequency of CX3CR1+ Mφ in the PLN", "setting": "[5]; 3 days after feeding 10 μg", "value": "significant VR1-dependent increase in the frequency"}, {"measurement": "frequency of CX3CR1+ Mφ in the PLN", "setting": "[5]; NOD mice, 3 days post oral gavage 10 μg", "value": "significant increase in the frequency"}, {"measurement": "elicitation of Tr1 cells in PLN", "setting": "[6]; CX3CR1gfp/gfp mice (no functional CX3CR1)", "value": "does not elicit Tr1 cells"}, {"measurement": "Tr1 cell elicitation by IL27RA genotype", "setting": "[6]; IL27RA −/−, +/− and +/+ mice", "value": "gene dose-dependence of Tr1 cell elicitation"}, {"measurement": "dependence of elicited Tr1 cells on IL27 signaling", "setting": "[6]; IL27RA+/+ vs IL27RA−/− mice, PLN", "value": "require the presence of functional IL27-IL27R signaling"}, {"measurement": "frequency of Tr1 cells in PLN", "setting": "[6]; [9]", "value": "expansion of Tr1 cells"}, {"measurement": "frequency of Tr1 cells in siLP", "setting": "[6]; [9]", "value": "expansion of Tr1 cells"}, {"measurement": "frequency of IL17A+ CD4+ T cells in the PLN", "setting": "[6]; NOD mice, oral administration", "value": "significant decrease in the frequency"}, {"measurement": "protection from T1D by transferred CD4+ T cells", "setting": "[7]", "value": "significantly higher protection from T1D"}]}, {"smiles": "O=C(Nc1cccnc1)N1CCC(Cc2cccc(Oc3ccc(C(F)(F)F)cn3)c2)CC1", "note": "[PF3845]", "values": [{"measurement": "frequency of CX3CR1hi Mφ in siLP", "setting": "[1]; [8]", "value": "increase in the frequency"}]}]}
